Key:
[1] = system: P-elF2α dependent read-through of Atf4 uORFs (Atf4-fluc reporter) in HEK293 cells; test: Atf4-luciferase reporter (Fluc/Rluc ratio) in transfected HEK293 cells; assay type: cell-based
Description: The Atf4- and Tacc3-luciferase constructs were made by cloning gBlock gene fragments (Integrated DNA Technologies) corresponding to 5′UTRs of Mus musculus Atf4 and Tacc3, fused to the 5′end of the fluc gene up to the Narl restriction enzyme site. Mutant versions of Atf4 and Tacc3 5′UTRs were designed with each ATG start codon of uORFs deleted. These 5′UTR gene fragments were cloned into Hindlll, Narl sites upstream of the firefly luciferase (fluc) gene in pGL3-promoter plasmids, thereby maintaining the final overlapping uORF with the main ORF for fluc (Promega™). FIG. 5A and FIG. 5B show a schematic of the formation of a pre-initiation complex that includes many factors including the a subunit (elF2α) that is dephosphorylated (FIG. 5A) or phosphorylated (FIG. 5B). The pre-initiation complex associates with the uORFs, where, if phosphorylated, translation initiation of the uORFs occurs upstream of Atf4 and continues to translate Atf4. However, if elF2α is dephosphorylated (FIG. 5A), no translation initiation occurs for Atf4 as the pre-initiation complex dissociates from the uORFs.
HEK293 cells were plated in 24-well plates at a density of 25,000 cells/well and incubated overnight. […] The cells were then lysed and the Fluc/Rluc ratio was determined using the Promega™ Dual-Luciferase Reporter kit (Madison, USA). […]

[2] = system: PAX7-expressing muscle stem cells (MuSCs); test: DDX6-positive RNA granules in PAX7-expressing MuSCs, ex vivo culture, immunofluorescence; assay type: cell-based, mice
Method: (§1) Moreover, cells and single EDL myofibres were cultured in 39% Dulbecco's modified eagle medium (DMEM), 39% F12, 20% fetal calf serum (FCS) (Life Technologies), 2% UltroserG™ (Pall Life Sciences). C2C12 myoblasts were cultured in DMEM supplemented with 20% FCS. When indicated, culture conditions were supplemented with 0.1% dimethylsulfoxide (DMSO control, Sigma), 10 μM sal003 (Sigma), or 0.1-0.2 μM C15.
P-elF2α is required for the assembly of DDX6-positive(+) RNA granules in quiescent and self-renewing satellite cells. Activated muscle stem cells (MuSCs) dephosphorylate elF2α, RNA granules disassemble, and the myogenic program is activated.
Immunoassays were also performed to further confirm the effect of C15 on the dephosphorylation of elF2α. For immunofluorescence, cultured satellite cells were fixed in 4% paraformaldehyde (PFA), permeabilized with 0.2% Triton™, 50 mM NH4Cl and blocked in 5% horse serum (HS). Single EDL myofibers were fixed with 4% PFA, permeabilized with 0.1% Triton™ in PBS and blocked in 5% horse serum (HS) with 0.1% Triton™ in PBS. TA muscles were fixed for 2 hr in 0.5% PFA at 4° C. and equilibrated overnight in 20% sucrose at 4° C. Tissues were mounted in Frozen Section Compound (VWR) and flash frozen in a liquid nitrogen-cooled isopentane bath. […]

[3] = system: MuSCs isolated from skeletal muscle of Dmd^mdx mice; test: Ex vivo culture of MuSCs from Dmd^mdx mice: PAX7 expression, myocolony size, fusion index; assay type: cell-based
Method: as §1
PAX7 expression marks MuSCs that retained stem cell properties to regenerate muscle. Under normal culture conditions, PAX7-expression is down regulated as MuSCs differentiate and lose their stem cell properties to regenerate muscle. […] Conceptually, these ex vivo results support a model by which pharmacological interventions that promote MuSC expansion (FIG. 10A, FIG. 10B, and FIG. 11) in the short term will lead to improved muscle mass and strength in the long term.
(§2) Immunoassays were also performed to further confirm the effect of C15 on the dephosphorylation of elF2α. For immunofluorescence, cultured satellite cells were fixed in 4% paraformaldehyde (PFA), permeabilized with 0.2% Triton™, 50 mM NH4Cl and blocked in 5% horse serum (HS). Single EDL myofibers were fixed with 4% PFA, permeabilized with 0.1% Triton™ in PBS and blocked in 5% horse serum (HS) with 0.1% Triton™ in PBS. TA muscles were fixed for 2 hr in 0.5% PFA at 4° C. and equilibrated overnight in 20% sucrose at 4° C. Tissues were mounted in Frozen Section Compound (VWR) and flash frozen in a liquid nitrogen-cooled isopentane bath. Transverse sections (10 μm) were permeabilized with 0.1% Triton™, 0.1M Glycine in PBS, and blocked in Mouse on Mouse (M.O.M.) reagent (Vector Labs).

[4] = system: elF2α phosphorylation in C2C12 cells; test: Immunoblot of P-elF2α and total elF2α in C2C12 cell lysates; assay type: cell-based
Method: as §1
For immunoblotting, cell lysates were obtained in RIPA buffer (ThermoFischer Scientific) supplemented with complete protease inhibitor cocktail (Roche) and phosphatase inhibitor cocktail (Sigma). The primary antibodies used were against PAX7 (DHSB), LAMININ (Sigma L9393), MYOG (Abcam 124800 and Santacruz sc-12732), and β-ACTIN (Sigma A5441). Alexa™ Fluor-488, Alexa™ Fluor-594 and Alexa™ Fluor-647 conjugated secondary anti-mouse IgG1, anti-mouse IgG2B or anti-rabbit antibodies (Life technologies) were used for immunofluorescence. Horseradish peroxidase (HRP) conjugated anti-mouse or anti-rabbit secondary antibodies (Jackson Immunoresearch) were used with the ECL™ Prime Western Blotting Detection reagents (GE Healthcare). Densitometry of immunoblots was performed with ImageJ™.
To determine the effect of C15 on elF2α phosphorylation, C2C12 cell lysates cultured for twelve hours in the presence of sal003 (10 μM) or C15 (0.1 μM and 0.2 μM) were immunoblotted.

Dmd^mdx mice = test: In vivo administration by osmotic pump in Dmd^mdx mouse model of Duchenne muscular dystrophy
Method: FIG. 20 is a schematic diagram of in vivo administration of C15 by an osmotic pump in the Dmd^mdx mouse model of Duchenne muscular dystrophy, specifically Alzet™ 2001 osmotic pumps were used to deliver 2.5 mg/kg/day of C15 with a vehicle containing 50:50 DMSO:[…] at a flow rate of 0.5 μL/hr by a subcutaneous implantation of the Alzet™ 2001 osmotic pumps into Dmd^mdx mouse, and 14 days later muscle was harvested for quantification by fluorescence of the myofibre CSA (red) and PAX7(+) (green) satellite cell compartment.
In this example, the effect of C15 on the dephosphorylated levels of elF2α was studied. Animal care practices were performed in accordance with the federal Canadian Council on Animal Care, as practiced by McGill University. All mice were maintained on a C57/BI6 background. Dmd^mdx mice, aged 8-10 weeks, were implanted (sub-cutaneously) with osmotic pumps (Alzet™) to deliver C15 at a rate of 2.5 mg/kg/day. C15 was dissolved in a 50:50 solution of DMSO:PEG400. At indicated time points, muscle was harvested for analysis by immunofluorescence.
as §2

satellite cells = test: Ex vivo expansion of cultured cells; assay type: cell-based; conditions: sal003 concentrations lower than 10 μM
Method: Moreover, cells and single EDL myofibres were cultured in 39% Dulbecco's modified eagle medium (DMEM), 39% F12, 20% fetal calf serum (FCS) (Life Technologies), 2% UltroserG™ (Pall Life Sciences). C2C12 myoblasts were cultured in DMEM supplemented with 20% FCS. […]

| P-elF2α activity to enable read-through of uORFs after incubation at 37° C. (stability) ([1]; C15 10 μM, incubated at 37° C. for 0-3 weeks, HEK293 cells (FIG. 19)) | SMILES | luciferase activity (Atf4-fluc reporter) ([1]; HEK293 cells, overnight, 10 μM, compared with sal003, C10 and DMSO (FIG. 6)) | DDX6(+) RNA granules in PAX7-expressing MuSCs, culture of isolated MuSCs ([2]; 0.2 μM C15, 4-day culture (FIG. 9)) | DDX6(+) RNA granules in PAX7-expressing MuSCs, culture of single myofibres ([2]; 0.2 μM C15, after 6 h (FIG. 7, 8)) | fusion index (number of nuclei per myotube) ([3]; 0.2 μM C15, 7 days (FIG. 14)) | PAX7 expression of Dmd^mdx MuSCs ([3]; 0.2 μM C15, cultured 3 days (FIG. 10, 11)) | myocolony size ([3]; 0.2 μM C15, long periods of time (7 days; FIG. 12, 13)) | P-elF2α levels (P-elF2α : total elF2α) ([4]; C2C12 cells, 12 hours, C15 0.1 to 0.2 μM vs sal003 10 μM (FIG. 15, 16)) | activity of increasing P-elF2α levels after incubation at 37° C. (stability) ([4]; C15 10 μM, incubated at 37° C. for 0-3 weeks, C2C12 cells (FIG. 17, 18)) | MuSC associated RNA granules (EDL myofibres) (Dmd^mdx mice; 2.5 mg/kg/day C15, osmotic pump s.c., two weeks (FIG. 21)) | myofiber cross sectional area of treated muscle (Dmd^mdx mice; 2.5 mg/kg/day C15, two weeks) | numbers of central nucleated myofibres (Dmd^mdx mice; 2.5 mg/kg/day C15, two weeks) | numbers of PAX7-expressing MuSCs on single EDL myofibres (Dmd^mdx mice; 2.5 mg/kg/day C15, two weeks (FIG. 23)) | numbers of PAX7-expressing MuSCs on transverse sections of tibialis anterior (TA) (Dmd^mdx mice; 2.5 mg/kg/day C15, two weeks (FIG. 24)) | numbers of PAX7-expressing MuSCs on transverse sections of diaphragm (Dmd^mdx mice; 2.5 mg/kg/day C15, two weeks (FIG. 25)) | ex vivo expansion of cells (satellite cells) |
| --- | --- | --- | --- | --- | --- | --- | --- | --- | --- | --- | --- | --- | --- | --- | --- | --- |
| maintained | CC(C)(C)c1ccc(NC(=S)NC(NC(=O)/C=C/c2ccccc2)C(Cl)(Cl)Cl)cc1 (stereo not shown) [C15] | significantly increases luciferase activity, higher than sal003 and C10 | maintained | maintained | larger fusion index | maintain PAX7 expression | larger myocolonies | increased the P-elF2α levels to a level equivalent to 10 μM sal003 | maintained the activity of increasing P-elF2α levels | maintenance of MuSC associated RNA granules | increased | decreased | increased numbers | increased numbers | increased numbers | – |
| – | O=C(/C=C/c1ccccc1)NC(NC(=S)Nc1ccc(Cl)cc1)C(Cl)(Cl)Cl (stereo not shown) [sal003] | – | – | – | – | – | – | – | – | – | – | – | – | – | – | not possible to expand the cells ex vivo at sal003 concentrations lower than 10 μM |

— US12497358B2, “Inhibitor of EIF2α dephosphorylation” (THE ROYAL INSTITUTION FOR THE ADVANCEMENT OF …, priority 2021, dated 2025)
